Reference: patent publication US11273153B2, “MAPK inhibitors” (EverBrilliant Pharma Pty Ltd, priority 2014, dated 2022)
Where “and” joins values, the source holds several entries; their conditions need not be identical. Identical values can stand only once. Like-named read-outs stand apart in the source and are kept apart here. Each block holds one compound with its values, some of them ahead of it.

Key:
[1] = test system: neonatal rat cardiac fibroblasts (NCF); test: NCF cell viability (MTT assay); format: cell-based
Procedure: Measurement of NCF cell viability was carried out using a published method with the 3-(4,5-dimethylthiazol-2-yl)-2,5-diphenyltetraxolium bromide (MTT) assay.

[2] = In vitro metabolic stability, human liver microsomes; format: in vitro ADME; details: for half-life: NADPH-dependent, read-out: Apparent Degradation half-life; for microsomal CLint: read-out: In vitro CLint (μL/min/mg protein)
Procedure: (§1) The metabolic stability of compounds 4.1 and 4.5 was assayed in an in vitro assay which employed liver microsomes. Liver microsomes are valuable models for the determination of hepatic clearance because they contain a number of drug metabolising enzymes, such as the CYP450 enzymes. An in vitro metabolic stability study was conducted using human, rat and mouse liver microsomes as a prediction of the in vivo metabolic clearance. […] From the results, the rates of apparent compound degradation in human, rat and mouse liver microsomes were in agreement with the moderate to high microsome-predicted extraction ratios (EH) for both compounds 4.1 and 4.5.

[3] = In vitro metabolic stability, rat liver microsomes; format: in vitro ADME; details: for half-life: NADPH-dependent, read-out: Apparent Degradation half-life; for microsomal CLint: read-out: In vitro CLint (μL/min/mg protein)
Procedure: as §1

[4] = In vitro metabolic stability, mouse liver microsomes; format: in vitro ADME; details: for half-life: NADPH-dependent, read-out: Apparent Degradation half-life; for microsomal CLint: read-out: In vitro CLint (μL/min/mg protein)
Procedure: as §1

[5] = Acute toxicity study in rats; format: in vivo, male Sprague-Dawley (SD) rats; details: two weeks
Procedure: (§2) An acute toxicity study of compound 4.5 was carried out. In this toxicity study, four male Sprague-Dawley (SD) rats received 150 mg/kg of compound 4.5 twice daily by oral gavage over a period of two weeks. The control group consisting of four male SD rats received 1% carboxymethylcellulose (CMC) in water. Blood samples were collected for analysis at 1 and 12 hours after the first dose and at the 7 and 14 day troughs. The rats were then sacrificed and organs collected for analysis. Individual body weights were measured at day −1, 2, 4, 7, 10 and 14. FIG. 7 indicates the blood results from an acute toxicity study for 4.5.
(§3) The full blood, haemoglobin, haemocrit, red cell count, mean corpuscular haemoglobin, mean corpuscular volume, red cell distribution width, mean corpuscular haemoglobin concentration and liver function were all assessed. […] The CDCO analysed blood samples using HPLC-MS to determine the concentrations of compound 4.5 in rat plasma at different time points (Table 3).

[6] = Plasma concentrations in the acute toxicity study (HPLC-MS); format: in vivo, rat; details: for Concentration in rat plasma: 150 mg/kg twice daily oral gavage, individual rats 1-4, rat 2 atypical and excluded
Procedure: as §2, §3

[7] = target: inactive non-phosphorylated p38α MAPK (Homo sapiens (Human), UniProt Q16539); test: Fluorescence polarisation (FP) binding assay, inactive enzyme
Sequence of inactive non-phosphorylated p38α MAPK (Q16539 whole entry): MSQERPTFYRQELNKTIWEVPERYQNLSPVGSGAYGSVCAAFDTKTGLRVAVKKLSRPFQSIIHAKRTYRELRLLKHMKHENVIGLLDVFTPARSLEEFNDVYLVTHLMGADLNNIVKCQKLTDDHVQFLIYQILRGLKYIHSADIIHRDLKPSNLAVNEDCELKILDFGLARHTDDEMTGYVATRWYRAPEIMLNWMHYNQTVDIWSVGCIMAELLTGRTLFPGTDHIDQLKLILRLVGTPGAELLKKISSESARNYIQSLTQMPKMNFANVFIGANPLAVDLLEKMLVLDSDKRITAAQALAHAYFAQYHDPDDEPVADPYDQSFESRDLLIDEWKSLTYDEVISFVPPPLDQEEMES
Procedure: (§4) A number of compounds were also assessed for the inhibition of p38α MAPK activity (www.kinase-screen.mrc.ac.uk) in which a radioactive (^33P-labelled ATP) filter binding assay was used to directly measure phosphate incorporation. Table 1 summarises the binding affinities of the synthesised compounds to both forms of the enzyme as well as the inhibitory activities against p38α MAPK. By way of enabling a comparison with a non-thiophene compound the biological testing was also carried out for known inhibitor RWJ67657, shown in table 1.
(§5) FP signals were measured with a PHERAstar microplate reader (BMG Labtech) using black, low-binding half-area 96 well plates (Corning). Each binding data point was carried out in duplicate or triplicate. Data were recorded in millipolarisation (mP) units and measured at an excitation wavelength of 485 nm and an emission wavelength of 520 nm. Tris(hydroxymethyl)aminomethane (Tris) assay buffer was used in all binding experiments and consisted of 10 mM Tris, […] potassium chloride, and 3.5 mM 3-((3-cholamidopropyl)dimethylammonium)-1-propanesulfonate (Chaps) at pH 8.0.
(§6) Test compounds were prepared from dimethylsulfoxide stocks (10 mM). […] Plates were incubated at room temperature for 1 hour and FP signals were recorded. For binding experiments to active p38α MAPK, the FP signals were recorded after 2 hours incubation at room temperature. Data is represented as mean±SEM from two to three independent experiments.

[8] = target: active phosphorylated p38α MAPK (Homo sapiens (Human), UniProt Q16539); test: Fluorescence polarisation (FP) binding assay, active enzyme
Sequence of active phosphorylated p38α MAPK (Q16539 whole entry): as above
Procedure: as §4, §5, §6

p38α MAPK = p38α MAPK (Homo sapiens (Human), UniProt Q16539); test: Radioactive (33P-labelled ATP) filter binding assay of p38α MAPK activity; format: biochemical
Sequence of p38α MAPK (Q16539 whole entry): as above
Procedure: as §4

[9] = test system: IL-6 gene expression in monocytic (THP-1) cells; test: LPS-induced IL-6 gene expression in THP-1 cells; format: cell-based; details: LPS-stimulated THP-1 cells
Procedure: Certain of the compounds were tested in a cellular assay for suppression of TNF-α and IL-6 gene expression in monocytic (THP-1) cells and the assay results are depicted in FIGS. 2 and 3. A published method was used whereby treating THP-1 cells with LPS induces TNF-α and IL-6 gene expression.

[10] = test system: neonatal rat cardiac myocytes (NCM); test: Neonatal rat cardiac myocyte hypertrophy (3H-leucine incorporation); format: cell-based
Procedure: Neonatal rat cardiac myocyte (NCM) hypertrophy was determined by ^3H-leucine incorporation following a published protocol on the above synthesised compounds using either Angiotensin II (AngII, 100 nM) or TNF-α (10 ng/mL) as the stimulus. ^3H levels were counted in scintillation fluid on a beta counter to determine levels of ^3H-leucine incorporation.

[11] = test system: neonatal rat cardiac fibroblasts (NCF); test: Neonatal rat cardiac fibroblast collagen synthesis (3H-proline incorporation); format: cell-based; details: AngII 100 nM stimulus
Procedure: The effect of the compounds on neonatal rat cardiac fibroblasts (NCF) collagen synthesis was determined by measuring ^3H-proline incorporation following a published protocol using AngII (100 nM) as the stimulus. ^3H-proline incorporation was determined in the same way as the cardiac myocyte hypertrophy assay described above.

[12] = 150 mg/kg twice daily oral gavage

SMILES: OCCC#Cc1cc(-c2ccncc2)c(-c2ccc(F)cc2)s1 [Compound 4.5, 4-(5-(4-Fluorophenyl)-4-(pyridin-4-yl)thiophen-2-yl)but-3-yn-1-ol]
NCF cell viability ([1]; 25 μM concentration): no affect on NCF cell viability | Microsome predicted EH [2]: 0.58 | half-life [2]: 71 min | microsomal CLint [2]: 24 µL/min/mg | Microsome predicted EH [3]: 0.78 | half-life [3]: 16 min | microsomal CLint [3]: 110 µL/min/mg | Microsome predicted EH [4]: 0.89 | half-life [4]: 9 min | microsomal CLint [4]: 184 µL/min/mg | average body weight compared to vehicle group [5, 12]: no difference in the average body weight compared to the vehicle group | full blood, haemoglobin, haemocrit, red cell parameters and liver function, treated vs vehicle [5, 12]: No differences were observed between treated and vehicle groups | liver function [5, 12]: no changes to liverfunction | mass of the spleen [5, 12]: loss in the mass of the spleen | weights of the kidneys, heart and liver [5, 12]: the same as the vehicle group | tolerability in rats ([5]; 300 mg/kg/day): well tolerated | Concentration in rat plasma ([6]; 1 hour post first dose): 1.357 µM and 0.0009 µM and 0.325 µM and 0.327 µM | Concentration in rat plasma ([6]; 12 hours post first dose): 0.008 µM and 0.007 µM and 0.147 µM and 0.005 µM | Concentration in rat plasma ([6]; 7 day trough): 0.005 µM and 0.424 µM and 0.058 µM and 0.006 µM | Concentration in rat plasma ([6]; 14 day trough): 0.007 µM and 0.105 µM and 0.032 µM and 0.014 µM | peak plasma levels relative to the enzyme IC50 value ([6]; intake of 300 mg/kg/day, rat): two to nine times higher

Ki ([7]; Table 1, read-out: Ki (μM, mean ± SEM) inactive p38α): 2.3 ± 0.2 µM | Ki ([7]; Table 6, read-out: Ki ± SEM (μM) to inactive p38α): 2.3 ± 0.2 µM | Ki ([8]; Table 1, read-out: Ki (μM, mean ± SEM) active p38α): 0.6 ± 0.1 µM | Ki ([8]; Table 6, read-out: Ki ± SEM (μM) to active p38α): 0.6 ± 0.1 µM | IC50 (p38α MAPK; Table 1, average of two experiments, read-out: IC50 (μM, mean)): 0.18 µM | IC50 (p38α MAPK; Table 6, read-out: IC50 (mean)): 0.18 µM | Microsome predicted EH [2]: 0.92 | half-life [2]: 8 min | microsomal CLint [2]: 219 µL/min/mg | Microsome predicted EH [3]: ~0.91 | half-life [3]: ~5 min | microsomal CLint [3]: ~319 µL/min/mg | Microsome predicted EH [4]: ~0.94 | half-life [4]: ~5 min | microsomal CLint [4]: ~342 µL/min/mg
SMILES: OCCC#Cc1sc(-c2ccc(F)cc2)c(-c2ccncc2)c1CCCc1ccccc1 [Compound 4.1, 4-(5-(4-Fluorophenyl)-3-(3-phenylpropyl)-4-(pyridin-4-yl)thiophen-2-yl)but-3-yn-1-ol]
inhibition of LPS-induced IL-6 gene expression [9]: strong inhibition | suppression of AngII-induced NCM hypertrophy ([10]; AngII 100 nM stimulus): suppression of NCM hypertrophy | suppression of TNF-α-induced NCM hypertrophy ([10]; TNF-α 10 ng/mL stimulus): suppression of NCM hypertrophy | inhibition of AngII-stimulated NCF collagen synthesis [11]: did not suppress AngII-induced NCF collagen synthesis at 1 μM concentration | NCF cell viability ([1]; 10 μM concentration): no affect on NCF cell viability
